Test results as given in the supplement of paper PMC10307832.

Experiments:
Test in all cases: relative viability (nuclei count vs DMSO), 5 days (fraction); higher = more cells survive
[1] = compound: COc1cc2ncn(-c3cc(OCc4ccccc4C(F)(F)F)c(C(N)=O)s3)c2cc1OC + Cc1cc(Nc2cc(N3CCN(C)CC3)nc(Sc3ccc(NC(=O)C4CC4)cc3)n2)n[nH]1 [Tozasertib] (partner 0.1 µM)
Outline: (§1)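 Relative viability divides the nuclei count in treated wells by that in vehicle wells. Lung cancer cell lines were seeded in 1536-well plates, dosed by pin tool the next day, and fixed and stained after 5 days in one step with final 0.05% Triton X-100, 1% formaldehyde and 1 ug/ml Hoechst. Dosing was a single drug or a fixed anchor-drug dose plus five library-drug doses (not always all listed) in √10 steps, and values are medians of duplicate plates imaged at 4×.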

[2] = compound: COc1cc2ncn(-c3cc(OCc4ccccc4C(F)(F)F)c(C(N)=O)s3)c2cc1OC + CCNC(=O)c1noc(-c2cc(C(C)C)c(O)cc2O)c1-c1ccc(CN2CCOCC2)cc1 [Luminespib] (partner 0.01 µM)
Outline: as §1

[3] = compound: COc1cc2ncn(-c3cc(OCc4ccccc4C(F)(F)F)c(C(N)=O)s3)c2cc1OC + Cc1nc(Nc2ncc(C(=O)Nc3c(C)cccc3Cl)s2)cc(N2CCN(CCO)CC2)n1 [Dasatinib] (partner 0.075 µM)
Outline: as §1

[4] = compound: COc1cc2ncn(-c3cc(OCc4ccccc4C(F)(F)F)c(C(N)=O)s3)c2cc1OC + Cc1nc(NC(=O)N2CCC[C@H]2C(N)=O)sc1-c1ccnc(C(C)(C)C(F)(F)F)c1 [Alpelisib] (partner 2 µM)
Outline: as §1

Row | Cell Line | relative viability ([1]; first compound 0.05 µM) | relative viability ([1]; first compound 0.1581 µM) | relative viability ([1]; first compound 0.5 µM) | relative viability ([1]; first compound 1.581 µM) | relative viability ([1]; first compound 5 µM) | relative viability ([2]; first compound 0.05 µM) | relative viability ([2]; first compound 0.1581 µM) | relative viability ([2]; first compound 0.5 µM) | relative viability ([2]; first compound 1.581 µM) | relative viability ([2]; first compound 5 µM) | relative viability ([3]; first compound 0.05 µM) | relative viability ([3]; first compound 0.1581 µM) | relative viability ([3]; first compound 0.5 µM) | relative viability ([3]; first compound 1.581 µM) | relative viability ([3]; first compound 5 µM) | relative viability ([4]; first compound 0.05 µM) | relative viability ([4]; first compound 0.1581 µM) | relative viability ([4]; first compound 0.5 µM) | relative viability ([4]; first compound 1.581 µM) | relative viability ([4]; first compound 5 µM)
1 | NCI-H358 | 0.0899 | 0.0976 | 0.118 | 0.0944 | 0.0929 | 0.26 | 0.378 | 0.29 | 0.102 | 0.13 | 0.151 | 0.195 | 0.185 | 0.0783 | 0.0726 | 0.852 | 1 | 0.386 | 0.127 | 0.177
2 | NCI-H441 | 0.71 | 0.481 | 0.232 | 0.236 | 0.336 | 0.312 | 0.378 | 0.216 | 0.224 | 0.202 | 0.573 | 0.538 | 0.265 | 0.174 | 0.168 | 0.771 | 0.506 | 0.161 | 0.177 | 0.156
3 | NCI-H460 | 0.497 | 0.294 | 0.0449 | 0.0359 | 0.0337 | 0.0239 | 0.0323 | 0.0299 | 0.0165 | 0.0166 | 0.593 | 0.636 | 0.283 | 0.0166 | 0.0348 | 0.51 | 0.537 | 0.0496 | 0.0115 | 0.0095
4 | NCI-H520 | 0.466 | 0.421 | 0.44 | 0.309 | 0.384 | 0.218 | 0.25 | 0.21 | 0.261 | 0.2 | 0.239 | 0.202 | 0.157 | 0.191 | 0.193 | 1.08 | 0.882 | 0.508 | 0.186 | 0.158
5 | NCI-H596 | 0.867 | 0.843 | 0.705 | 0.383 | 0.359 | 1.16 | 1.08 | 0.79 | 0.272 | 0.276 | 0.616 | 0.561 | 0.478 | 0.279 | 0.235 | 0.496 | 0.514 | 0.35 | 0.29 | 0.23
6 | NCI-H647 | 0.0011 | 0.324 | 0.218 | 0.125 | 0.104 | 0.438 | 0.143 | 0.12 | 0.101 | 0.069 | 0.216 | 0.144 | 0.0412 | 0.0467 | 0.0528 | 1.23 | 1.1 | 0.214 | 0.079 | 0.0802
7 | NCI-H650 | 0.66 | 0.671 | 0.35 | 0.173 | 0.237 | 0.748 | 0.759 | 0.632 | 0.118 | 0.37 | 0.468 | 0.429 | 0.32 | 0.166 | 0.261 | 1.11 | 1.1 | 0.698 | 0.185 | 0.29
8 | NCI-H661 | 0.37 | 0.348 | 0.327 | 0.301 | 0.321 | 0.812 | 0.872 | 0.528 | 0.255 | 0.212 | 0.986 | 0.779 | 0.312 | 0.293 | 0.171 | 0.855 | 0.367 | 0.499 | 0.26 | 0.224
9 | NCI-H727 | 0.639 | 0.565 | 0.659 | 0.445 | 0.42 | 0.396 | 0.311 | 0.334 | 0.291 | 0.31 | 0.383 | 0.349 | 0.362 | 0.225 | 0.329 | 0.545 | 0.695 | 0.41 | 0.282 | 0.247
10 | NCI-H838 | 0.245 | 0.258 | 0.189 | 0.25 | 0.204 | 0.301 | 0.283 | 0.128 | 0.136 | 0.114 | 0.302 | 0.291 | 0.224 | 0.255 | 0.156 | 1.25 | 1.02 | 0.956 | 0.36 | 0.142
11 | NCI-H1355 | 0.515 | 0.635 | 0.302 | 0.202 | 0.135 | 0.635 | 0.623 | 0.424 | 0.221 | 0.163 | 0.707 | 0.739 | 0.491 | 0.163 | 0.143 | 0.879 | 0.827 | 0.669 | 0.208 | 0.143
12 | NCI-H1395 | 0.774 | 0.898 | 0.636 | 0.36 | 0.343 | 0.753 | 0.814 | 0.579 | 0.321 | 0.359 | 0.413 | 0.438 | 0.455 | 0.358 | 0.306 | 1.04 | 1.11 | 0.726 | 0.342 | 0.375
13 | NCI-H1437 | 0.457 | 0.456 | 0.377 | 0.354 | 0.251 | 1.16 | 0.969 | 0.53 | 0.244 | 0.159 | 0.412 | 0.356 | 0.322 | 0.162 | 0.104 | 1.11 | 0.959 | 0.187 | 0.12 | 0.0887
14 | NCI-H1651 | 0.89 | 0.706 | 0.314 | 0.182 | 0.155 | 1.15 | 0.858 | 0.36 | 0.137 | 0.109 | 0.403 | 0.39 | 0.198 | 0.0914 | 0.0837 | 0.98 | 0.95 | 0.777 | 0.111 | 0.0858
15 | NCI-H1666 | 0.569 | 0.507 | 0.388 | 0.343 | 0.39 | 1.06 | 0.937 | 0.508 | 0.36 | 0.363 | 0.825 | 0.758 | 0.518 | 0.316 | 0.271 | 1.22 | 0.834 | 0.493 | 0.29 | 0.292
16 | NCI-H1734 | 0.272 | 0.245 | 0.226 | 0.224 | 0.17 | 0.18 | 0.239 | 0.17 | 0.147 | 0.125 | 0.477 | 0.516 | 0.387 | 0.197 | 0.129 | 0.784 | 0.721 | 0.571 | 0.334 | 0.224
